This note sets out measurements from patent US10894798B2, “Substituted dihydropyrrolopyrazole derivative” (UBE INDUSTRIES, LTD., priority 2015, dated 2021).

A word on the GI50: it is the concentration at which growth is held to half of that of the control. Usually Ki stands for the dissociation constant of the complex between target and ligand, obtained from inhibition or displacement.

For assay [1], the system named is human large intestine cancer cell line (HCT-116). Kind of assay: Human large intestine cancer (HCT-116) cell growth inhibition test. It counts as cell-based. The note with it: HCT-116, 72 h, culture for 3 days, sulforhodamine B, read-out: GI50 value, HCT-116 cell growth inhibition. The protocol:
The measurement of a human large intestine cancer cell growth inhibitory effect was carried out by modifying the method of Simak et al. (Cancer Research, 69, 6208 (2009)).
A human large intestine cancer cell line (HCT-116, obtained from DS Pharma Biomedical Co., Ltd.) was cultured in a McCoy's 5A medium (manufactured by Thermo Fisher Scientific, Inc.) containing 10% fetal bovine serum (FBS) (manufactured by Thermo Fisher Scientific, Inc.) and 1% penicillin/streptomycin/amphotericin B (manufactured by Thermo Fisher Scientific, Inc.) and inoculated at 0.5 to 2.0×10^3 cells/well in a 96-well plate. After overnight culture in a carbon dioxide incubator, the medium was replaced with a fresh medium on the next day, and a test compound dissolved in DMSO (final DMSO concentration: 0.1%) was added thereto and left standing in a carbon dioxide incubator. After culture for 3 days, the absorbance thereof was measured by using In Vitro Toxicology Assay Kit Sulforhodamine B based (manufactured by Sigma-Aldrich Co. LLC.).
The rate of inhibition of cell growth at each concentration was calculated from the test compound concentration and the absorbance of sulforhodamine B, and the concentration of the test compound necessary for inhibiting 50% of cell growth (GI50 value) was calculated by using EXSUS (version 8.1.0, manufactured by CAC Exicare Corp.).

The next assay has as its target T1, CDK7 (Homo sapiens, UniProt P50613).
T1 construct: purchased Carna Biosciences, Inc. 04-108
Kind of assay: CDK7 enzyme inhibition test. The conditions noted are these: [γ-33P]ATP, MBP substrate, 60 min preincubation at 25°C; Ki=IC50/(1+S/Km); read-out: Ki value of CDK7 inhibitory activity. Format: biochemical. The protocol: (§1) The preparation of a buffer solution was performed by mixing a N-2-hydroxyethylpiperazine-N′-2-ethanesulfonic acid buffer solution (HEPES buffer solution) (pH 7.4), dithiothreitol (DTT), Triton X-100, and magnesium chloride (MgCl2). A 500 μM [γ-^33P]ATP solution was used by diluting a 10 mM ATP solution and a commercially available [γ-^33P]ATP solution (manufactured by PerkinElmer, Inc., Code No. NEG-302H) with the buffer solution. A CDK7 solution was used by diluting commercially available CDK7 (manufactured by Carna Biosciences, Inc., Catalog No. 04-108) with the buffer solution. A substrate solution was used by diluting myelin basic protein (MBP) with the buffer solution. As for the preparation of a reaction solution, the buffer solution, the CDK7 solution, and the substrate solution were mixed at 4° C. to obtain a reaction solution.
CDK7 enzyme reaction was performed by adding 5 μL of a test compound solution prepared with 10% DMSO/90% injectable distilled water, and 40 μL of the reaction solution to a 1.5 mL microtube at 4° C. and preincubating the microtube at 25° C. for 60 minutes in a water bath incubator. Subsequently, reaction was performed at 30° C. for 20 minutes by adding 5 μL of the 500 μM [γ-^33P]ATP solution. After the reaction, a 10% aqueous trichloroacetic acid (TCA) solution was added to each microtube while cooled to 4° C., and mixed in a vortex mixer to terminate the reaction. The resultant was left standing at 4° C. for 10 minutes and then centrifuged, and the supernatant was discarded. Next, a 2% aqueous trichloroacetic acid (TCA) solution was added thereto, mixed in a vortex mixer, and then centrifuged, and the supernatant was discarded. This washing operation was performed twice. After the washing, precipitates were dissolved in a 1 N aqueous sodium hydroxide (NaOH) solution, and the energy quantity (radioactivity) of the reaction product was measured with a liquid scintillation counter.
The calculation of the inhibitory activity of the test compound against CDK7 was performed as a test compound concentration inhibiting 50% of the amount of ^33P bound to MBP (IC50 value) by using EXSUS (version 8.1.0, manufactured by CAC Exicare Corp.).
(§2) The calculation of a Ki value was performed according to the following calculation expression wherein S represents the concentration of ATP contained in the reaction solution, and Km represents a Michaelis-Menten constant: Ki=IC50/(1+S/Km)

The target of another assay is T2, CDK2 (Homo sapiens, UniProt P24941).
T2 construct: purchased Invitrogen Corp. PV3267
Briefly: CDK2 enzyme inhibition test. Format: biochemical. The note with it: [γ-33P]ATP, MBP substrate; Ki=IC50/(1+S/Km); read-out: Ki value of CDK2 inhibitory activity. The protocol: as §1, with “by Perkin Elmer,” for “by PerkinElmer,”, “A CDK2” for “A CDK7”, “available CDK2” for “available CDK7”, “by Invitrogen Corp.,” for “by Carna Biosciences, Inc.,”, “No. PV3267)” for “No. 04-108)”, “the 500 μM [γ-^33P]ATP solution, the CDK2” for “the CDK7”
(§3) CDK2 enzyme reaction was performed by adding 5 μL of a test compound solution prepared with 10% DMSO/90% injectable distilled water, and 45 μL of the reaction solution in a 1.5 mL microtube at 4° C. and reacting in the microtube at 30° C. for 20 minutes in a water bath incubator. After the reaction, a 10% aqueous trichloroacetic acid (TCA) solution was added to each microtube while cooled to 4° C., and mixed in a vortex mixer to terminate the reaction. The resultant was left standing at 4° C. for 10 minutes and then centrifuged, and the supernatant was discarded. Next, a 2% aqueous trichloroacetic acid (TCA) solution was added thereto, mixed in vortex mixer, and then centrifuged, and the supernatant was discarded. This washing operation was performed twice. After the washing, precipitates were dissolved in a 1 N aqueous sodium hydroxide (NaOH) solution, and the energy quantity (radioactivity) of the reaction product was measured with a liquid scintillation counter.
The calculation of the inhibitory activity of the test compound against CDK2 was performed as a test compound concentration inhibiting 50% of the amount of ^33P bound to MBP (IC50 value) by using EXSUS (version 8.1.0, manufactured by CAC Exicare Corp.).
as §2

For a further assay, the target named is T3, PLK1 (Homo sapiens, UniProt P53350).
T3 construct: purchased Carna Biosciences, Inc. 05-157
Briefly: PLK1 enzyme (polo-like kinase) inhibition test. It counts as biochemical. The conditions noted are these: [γ-33P]ATP, casein substrate; Ki=IC50/(1+S/Km); read-out: Ki value of PLK1 inhibitory activity. The protocol: The preparation of a buffer solution was performed by mixing a 3-morpholinopropanesulfonic acid buffer solution (MOPS buffer solution) (pH 7.0), dithiothreitol (DTT), and magnesium acetate (Mg(CH3COO)2). A 1 mM [γ-^33P]ATP solution was used by diluting a 10 mM ATP solution and a commercially available [γ-^33P]ATP solution (manufactured by Perkin Elmer, Inc., Code No. NEG-302H) with the buffer solution. A PLK1 solution was used by diluting commercially available PLK1 (manufactured by Carna Biosciences, Inc., Catalog No. 05-157) with the buffer solution. A substrate solution was used by diluting casein with the buffer solution. As for the preparation of a reaction solution, the buffer solution, the 500 μM [γ-^33P]ATP solution, the PLK1 solution, and the substrate solution were mixed at 4° C. to obtain a reaction solution.
as §3, with “PLK1 enzyme reaction” for “CDK2 enzyme reaction”, “mixed in a vortex mixer,” for “mixed in vortex mixer,”
The calculation of the inhibitory activity of the test compound against PLK1 was performed as a test compound concentration inhibiting 50% of the amount of ^33P bound to casein (IC50 value) by using EXSUS (version 8.1.0, manufactured by CAC Exicare Corp.).
as §2

Molecules are shown by their SMILES. A value given as a limit tells only on which side of the number the result lay.

T1 sequence (P50613 whole entry): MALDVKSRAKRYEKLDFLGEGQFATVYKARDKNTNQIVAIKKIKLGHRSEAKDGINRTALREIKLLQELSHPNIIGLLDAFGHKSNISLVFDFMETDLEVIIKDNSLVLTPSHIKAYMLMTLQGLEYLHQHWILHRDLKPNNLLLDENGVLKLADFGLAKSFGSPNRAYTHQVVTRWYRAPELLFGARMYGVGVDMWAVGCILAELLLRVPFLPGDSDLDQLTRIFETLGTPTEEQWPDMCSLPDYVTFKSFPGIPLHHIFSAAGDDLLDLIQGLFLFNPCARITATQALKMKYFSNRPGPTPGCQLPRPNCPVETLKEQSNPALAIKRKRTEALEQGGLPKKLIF
T1 sequence (P51946 whole entry partner): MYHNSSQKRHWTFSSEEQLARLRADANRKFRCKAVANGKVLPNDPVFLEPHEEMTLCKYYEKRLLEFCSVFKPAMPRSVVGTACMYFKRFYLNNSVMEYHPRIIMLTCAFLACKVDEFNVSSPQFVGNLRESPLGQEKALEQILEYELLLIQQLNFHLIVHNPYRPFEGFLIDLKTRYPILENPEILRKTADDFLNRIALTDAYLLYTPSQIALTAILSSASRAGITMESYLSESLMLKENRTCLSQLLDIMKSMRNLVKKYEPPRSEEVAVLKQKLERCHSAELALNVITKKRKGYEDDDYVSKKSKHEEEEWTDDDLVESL
T1 sequence (P51948 whole entry partner): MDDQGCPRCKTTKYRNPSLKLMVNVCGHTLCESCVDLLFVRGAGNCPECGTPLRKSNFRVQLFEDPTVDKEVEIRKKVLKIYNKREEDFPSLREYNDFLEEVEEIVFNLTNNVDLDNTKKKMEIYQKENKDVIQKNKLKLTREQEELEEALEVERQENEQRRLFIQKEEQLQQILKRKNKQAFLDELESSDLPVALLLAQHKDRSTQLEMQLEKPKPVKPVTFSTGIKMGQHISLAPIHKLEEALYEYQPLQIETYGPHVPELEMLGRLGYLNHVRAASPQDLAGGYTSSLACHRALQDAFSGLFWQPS
T3 sequence (P53350 whole entry): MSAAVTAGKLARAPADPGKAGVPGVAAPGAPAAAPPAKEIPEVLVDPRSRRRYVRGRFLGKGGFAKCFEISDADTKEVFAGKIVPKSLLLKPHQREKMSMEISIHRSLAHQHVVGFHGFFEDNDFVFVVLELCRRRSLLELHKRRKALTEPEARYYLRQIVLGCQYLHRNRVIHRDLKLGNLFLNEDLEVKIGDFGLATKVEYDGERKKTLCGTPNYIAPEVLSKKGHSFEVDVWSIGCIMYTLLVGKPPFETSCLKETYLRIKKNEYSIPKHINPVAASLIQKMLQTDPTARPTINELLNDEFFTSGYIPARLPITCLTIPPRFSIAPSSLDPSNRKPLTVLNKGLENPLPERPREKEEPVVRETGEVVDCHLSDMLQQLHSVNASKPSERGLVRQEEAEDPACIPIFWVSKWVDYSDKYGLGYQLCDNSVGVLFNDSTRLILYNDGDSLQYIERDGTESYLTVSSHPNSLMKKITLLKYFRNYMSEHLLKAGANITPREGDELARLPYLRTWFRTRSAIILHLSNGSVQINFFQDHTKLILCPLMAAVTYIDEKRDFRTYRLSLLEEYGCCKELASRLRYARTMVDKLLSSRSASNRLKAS

On to `CC1(C)c2[nH]nc(NC(=O)C3([Si](C)(C)C)CCC3)c2CN1C(=O)Nc1ccccc1Cl` [IV-9, N-(2-Chlorophenyl)-6,6-dimethyl-3-[1-(trimethylsilyl)cyclobutanecarboxamido]-4,6-dihydropyrrolo[3,4-c]pyrazole-5(1H)-carboxamide], for which the GI50 in assay [1] was not above 100 nM. In addition, the figures for the Ki at CDK7 and on CDK2 were not above 50 nM and not below 1000 nM, respectively.
For `COc1ccccc1NC(=O)N1Cc2c(NC(=O)C3([Si](C)(C)C)CCC3)n[nH]c2C1(C)C` [IV-75, N-(2-Methoxyphenyl)-6,6-dimethyl-3-[1-(trimethylsilyl)cyclobutanecarboxamido]-4,6-dihydropyrrolo[3,4-c]pyrazole-5(1H)-carboxamide], the GI50 in assay [1] is not above 100 nM. Also, the Ki on CDK7 was not above 50 nM; on CDK2, not below 1000 nM.
In the case of `CC1(C)c2[nH]nc(NC(=O)C3([Si](C)(C)C)CCC3)c2CN1C(=O)Nc1ccccc1OC(F)(F)F` [IV-93, 6,6-Dimethyl-N-[2-(trifluoromethoxy)phenyl]-3-[1-(trimethylsilyl)cyclobutanecarboxamido]-4,6-dihydropyrrolo[3,4-c]pyrazole-5(1H)-carboxamide], the GI50 in assay [1] is not above 100 nM. For the same molecule, at CDK7, the inhibition constant (Ki) is not above 50 nM.
With `CC1(C)c2[nH]nc(NC(=O)C3([Si](C)(C)C)CCC3)c2CN1C(=O)Nc1c(F)cccc1C(F)(F)F` [IV-153, N-[2-Fluoro-6-(trifluoromethyl)phenyl]-6,6-dimethyl-3-[1-(trimethylsilyl)cyclobutanecarboxamido]-4,6-dihydropyrrolo[3,4-c]pyrazole-5(1H)-carboxamide], the 50% growth inhibitory concentration (GI50) in assay [1] was not above 100 nM. Moreover, the Ki at PLK1 is not below 5000 nM; on CDK7, not above 50 nM.
Turning to `CC1(C)c2[nH]nc(NC(=O)C3([Si](C)(C)C)CCC3)c2CN1C(=O)Nc1ccccc1C(F)(F)F` [IV-51, 6,6-Dimethyl-N-[2-(trifluoromethyl)phenyl]-3-[1-(trimethylsilyl)cyclobutanecarboxamido]-4,6-dihydropyrrolo[3,4-c]pyrazole-5 (1H)-carboxamide], in assay [1], the GI50 was not above 100 nM. Also, on CDK7, the Ki is not above 50 nM.
For the molecule `Cc1cccc(Br)c1NC(=O)N1Cc2c(NC(=O)C3([Si](C)(C)C)CC3)n[nH]c2C1(C)C` [III-299, N-(2-Bromo-6-methylphenyl)-6,6-dimethyl-3-[1-(trimethylsilyl)cyclopropanecarboxamido]-4,6-dihydropyrrolo[3,4-c]pyrazole-5(1H)-carboxamide], the GI50 in assay [1] was not above 100 nM. For the same molecule, the Ki on CDK7 is not above 50 nM.
Take `COc1ccc(NC(=O)N2Cc3c(NC(=O)C4([Si](C)(C)C)CCC4)n[nH]c3C2(C)C)cc1` [IV-79, N-(4-Methoxyphenyl)-6,6-dimethyl-3-[1-(trimethylsilyl)cyclobutanecarboxamido]-4,6-dihydropyrrolo[3,4-c]pyrazole-5(1H)-carboxamide]: the concentration for 50% growth inhibition (GI50) in assay [1] was not above 100 nM. In addition, the Ki at CDK7 was not above 50 nM.
As to `CC1(C)c2[nH]nc(NC(=O)C3([Si](C)(C)C)CCC3)c2CN1C(=O)Nc1ccc(F)cc1F` [IV-101, N-(2,4-Difluorophenyl)-6,6-dimethyl-3-[1-(trimethylsilyl)cyclobutanecarboxamido]-4,6-dihydropyrrolo[3,4-c]pyrazole-5(1H)-carboxamide], the GI50 in assay [1] is not above 100 nM. In addition, on CDK7, the Ki is not above 50 nM.
Take `CC1(C)c2[nH]nc(NC(=O)C3([Si](C)(C)C)CCC3)c2CN1C(=O)Nc1cc(F)ccc1F` [IV-103, N-(2,5-Difluorophenyl)-6,6-dimethyl-3-[1-(trimethylsilyl)cyclobutanecarboxamido]-4,6-dihydropyrrolo[3,4-c]pyrazole-5(1H)-carboxamide]: the GI50 in assay [1] was not above 100 nM. The Ki at CDK7 is not above 50 nM.
In the case of `CC1(C)c2[nH]nc(NC(=O)C3([Si](C)(C)C)CCC3)c2CN1C(=O)Nc1cc(Cl)ccc1F` [IV-111, N-(5-Chloro-2-fluorophenyl)-6,6-dimethyl-3-[1-(trimethylsilyl)cyclobutanecarboxamido]-4,6-dihydropyrrolo[3,4-c]pyrazole-5 (1H)-carboxamide], the GI50 in assay [1] was not above 100 nM. The Ki on CDK7 was not above 50 nM.
Taken in the same sequence, the figures for `Cc1ccc(NC(=O)N2Cc3c(NC(=O)C4([Si](C)(C)C)CCC4)n[nH]c3C2(C)C)c(F)c1` [IV-125, N-(2-Fluoro-4-methylphenyl)-6,6-dimethyl-3-[1-(trimethylsilyl)cyclobutanecarboxamido]-4,6-dihydropyrrolo[3,4-c]pyrazole-5 (1H)-carboxamide] were not above 100 nM and not above 50 nM.
